# Like-named read-outs stand apart in the source and are kept apart here.
# Key:
# [1] = test system: E. coli; test: Biofilm growth assay (spreading biofilm on semi-solid agar); assay type: cell-based; conditions: for IC85: Escherichia coli
# Outline: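 Spreading (swarming) biofilm on semi-solid agar: E. coli on LB with 0.6% agar and 0.5% glucose; P. aeruginosa on M8 agar with 0.2% glucose, 100 µM CaCl2, 1 mM MgSO4, 0.5% Casamino acids. Compound in medium; 5 µL overnight culture spotted centrally, 37°C overnight. Value: concentration (µg/ml) giving ≥85% reduction in spread area versus negative control.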
# [2] = test system: P. aeruginosa; test: as above; assay type: cell-based; conditions: for IC85: Pseudomonas aeruginosa
# [3] = Table 4, concentration that reduces the area of the spreading biofilm by >= 85%, read-out: E. coli
# [4] = Table 4, concentration that reduces the area of the spreading biofilm by >= 85%, read-out: P. aeruginosa
# [5] = Table 4, concentration that reduces the area of the spreading biofilm by >= 85%
# [6] = read-out: P. aeruginosa (µg/ml)
# [7] = Table 5, concentration that reduces the area of the spreading biofilm by >= 85%, read-out: E. coli
# [8] = Table 5, concentration that reduces the area of the spreading biofilm by >= 85%, read-out: P. aeruginosa
Compound,"IC85 [1, 3] [µg/mL]","IC85 [2, 4] [µg/mL]",other results
"CC1(C)CC[C@]2(c3nnc(S)[nH]3)CC[C@]3(C)C(=CCC4[C@@]5(C)Cc6c(n[nH]c6N)C(C)(C)C5CC[C@]43C)C2C1 (stereo partly drawn) [Compound 75, 5-((4aS,6aS,6bR,13aR)-12-Amino-2,2,6a,6b,9,9,13a-heptamethyl-2,3,4,4a,5,6,6a,6b,7,8,8a,9,11,13,13a,13b,14,15b-octadecahydro-1H-chryseno[1,2-f]indazol-4a-yl)-4H-1,2,4-triazole-3-thiol]",1,0.5,–
"CC1(C)CC[C@]2(C(=O)n3cnc(S)n3)CC[C@]3(C)C(=CCC4[C@@]5(C)Cc6c(n[nH]c6N)C(C)(C)C5CC[C@]43C)C2C1 (stereo partly drawn) [Compound 76, ((4aS,6aS,6bR,13aR)-12-Amino-2,2,6a,6b,9,9,13a-heptamethyl-2,3,4,4a,5,6,6a,6b,7,8,8a,9,11,13,13a,13b,14,15b-octadecahydro-1H-chryseno[1,2-f]indazol-4a-yl)(3-mercapto-1H-1,2,4-triazol-1-yl)methanone]",2,0.5,–
"Cc1nnc(S)n1NC(=O)[C@]12CCC(C)(C)CC1C1=CCC3[C@@]4(C)Cc5c(n[nH]c5N)C(C)(C)C4CC[C@@]3(C)[C@]1(C)CC2 (stereo partly drawn) [Compound 77, (4aS,6aS,6bR,13aR)-12-Amino-N-(3-mercapto-5-methyl-4H-1,2,4-triazol-4-yl)-2,2,6a,6b,9,9,13a-heptamethyl-2,3,4,4a,5,6,6a,6b,7,8,8a,9,11,13,13a,13b,14,15b-octadecahydro-1H-chryseno[1,2-f]indazole-4a-carboxamide]",2,1,–
"CC1(C)CC[C@]2(c3nnc(O)s3)CC[C@]3(C)C(=CCC4[C@@]5(C)Cc6c(n[nH]c6N)C(C)(C)C5CC[C@]43C)C2C1 (stereo partly drawn) [Compound 78, 5-((4aS,6aS,6bR,13aR)-12-Amino-2,2,6a,6b,9,9,13a-heptamethyl-2,3,4,4a,5,6,6a,6b,7,8,8a,9,11,13,13a,13b,14,15b-octadecahydro-1H-chryseno[1,2-f]indazol-4a-yl)-1,3,4-thiadiazol-2-ol]",1,> 1,–
"CC1(C)CC[C@]2(C(=O)Nc3cc(S)n[nH]3)CC[C@]3(C)C(=CCC4[C@@]5(C)Cc6c(n[nH]c6N)C(C)(C)C5CC[C@]43C)C2C1 (stereo partly drawn) [Compound 79, (4aS,6aS,6bR,13aR)-12-Amino-N-(3-mercapto-1H-pyrazol-5-yl)-2,2,6a,6b,9,9,13a-heptamethyl-2,3,4,4a,5,6,6a,6b,7,8,8a,9,11,13,13a,13b,14,15b-octadecahydro-1H-chryseno[1,2-f]indazole-4a-carboxamide]",0.5,0.25,–
CC1(C)CC[C@]2(C(=O)Nc3nnc(S(N)(=O)=O)s3)CC[C@]3(C)C(=CCC4[C@@]5(C)Cc6c(n[nH]c6N)C(C)(C)C5CC[C@]43C)C2C1 (some centres unmarked) [Compound 80],–,–,"E. coli [1, 5]: 1 µg/mL; P. aeruginosa [2, 5]: 1 µg/mL"
"CC1(C)CC[C@]2(c3n[nH]c(O)c3CCO)CC[C@]3(C)C(=CCC4[C@@]5(C)Cc6c(n[nH]c6N)C(C)(C)C5CC[C@]43C)C2C1 (stereo partly drawn) [Compound 81, 3-((4aS,6aS,6bR,13aR)-12-Amino-2,2,6a,6b,9,9,13a-heptamethyl-2,3,4,4a,5,6,6a,6b,7,8,8a,9,11,13,13a,13b,14,15b-octadecahydro-1H-chryseno[1,2-f]indazol-4a-yl)-4-(2-hydroxyethyl)-1H-pyrazol-5-ol]",1,0.5,–
"Cc1c([C@]23CCC(C)(C)CC2C2=CCC4[C@@]5(C)Cc6c(n[nH]c6N)C(C)(C)C5CC[C@@]4(C)[C@]2(C)CC3)n[nH]c1O (stereo partly drawn) [Compound 82, 3-((4aS,6aS,6bR,13aR)-12-Amino-2,2,6a,6b,9,9,13a-heptamethyl-2,3,4,4a,5,6,6a,6b,7,8,8a,9,11,13,13a,13b,14,15b-octadecahydro-1H-chryseno[1,2-f]indazol-4a-yl)-4-methyl-1H-pyrazol-5-ol]",1,0.5,–
"CC1(C)CC[C@]2(c3n[nH]c(O)c3F)CC[C@]3(C)C(=CCC4[C@@]5(C)Cc6c(n[nH]c6N)C(C)(C)C5CC[C@]43C)C2C1 (stereo partly drawn) [Compound 83, 3-((4aS,6aS,6bR,13aR)-12-Amino-2,2,6a,6b,9,9,13a-heptamethyl-2,3,4,4a,5,6,6a,6b,7,8,8a,9,11,13,13a,13b,14,15b-octadecahydro-1H-chryseno[1,2-f]indazol-4a-yl)-4-fluoro-1H-pyrazol-5-ol]",0.5,0.25,–
"CC1(C)CC[C@]2(c3n[nH]c(O)c3CCN)CC[C@]3(C)C(=CCC4[C@@]5(C)Cc6c(n[nH]c6N)C(C)(C)C5CC[C@]43C)C2C1 (stereo partly drawn) [Compound 84, 3-((4aS,6aS,6bR,13aR)-12-Amino-2,2,6a,6b,9,9,13a-heptamethyl-2,3,4,4a,5,6,6a,6b,7,8,8a,9,11,13,13a,13b,14,15b-octadecahydro-1H-chryseno[1,2-f]indazol-4a-yl)-4-(2-aminoethyl)-1H-pyrazol-5-ol]",0.5,0.125,–
"CN(C)CCc1c([C@]23CCC(C)(C)CC2C2=CCC4[C@@]5(C)Cc6c(n[nH]c6N)C(C)(C)C5CC[C@@]4(C)[C@]2(C)CC3)n[nH]c1O (stereo partly drawn) [Compound 85, 3-((4aS,6aS,6bR,13aR)-12-Amino-2,2,6a,6b,9,9,13a-heptamethyl-2,3,4,4a,5,6,6a,6b,7,8,8a,9,11,13,13a,13b,14,15b-octadecahydro-1H-chryseno[1,2-f]indazol-4a-yl)-4-(2-(dimethylamino)ethyl)-1H-pyrazol-5-ol]",1,0.5,–
"CNCCc1c([C@]23CCC(C)(C)CC2C2=CCC4[C@@]5(C)Cc6c(n[nH]c6N)C(C)(C)C5CC[C@@]4(C)[C@]2(C)CC3)n[nH]c1O (stereo partly drawn) [Compound 86, 3-((4aS,6aS,6bR,13aR)-12-Amino-2,2,6a,6b,9,9,13a-heptamethyl-2,3,4,4a,5,6,6a,6b,7,8,8a,9,11,13,13a,13b,14,15b-octadecahydro-1H-chryseno[1,2-f]indazol-4a-yl)-4-(2-(methylamino)ethyl)-1H-pyrazol-5-ol]",2,0.5,–
"CC1(C)CC[C@]2(c3n[nH]c(O)c3CCNC(N)=O)CC[C@]3(C)C(=CCC4[C@@]5(C)Cc6c(n[nH]c6N)C(C)(C)C5CC[C@]43C)C2C1 (stereo partly drawn) [Compound 87, 1-(2-(3-((4aS,6aS,6bR,13aR)-12-Amino-2,2,6a,6b,9,9,13a-heptamethyl-2,3,4,4a,5,6,6a,6b,7,8,8a,9,11,13,13a,13b,14,15b-octadecahydro-1H-chryseno[1,2-f]indazol-4a-yl)-5-hydroxy-1H-pyrazol-4-yl)ethyl)urea]",1,0.5,–
"CC1(C)CC[C@]2(c3n[nH]c(O)c3N3CCOCC3)CC[C@]3(C)C(=CCC4[C@@]5(C)Cc6c(n[nH]c6N)C(C)(C)C5CC[C@]43C)C2C1 (stereo partly drawn) [Compound 88, 3-((4aS,6aS,6bR,13aR)-12-Amino-2,2,6a,6b,9,9,13a-heptamethyl-2,3,4,4a,5,6,6a,6b,7,8,8a,9,11,13,13a,13b,14,15b-octadecahydro-1H-chryseno[1,2-f]indazol-4a-yl)-4-morpholino-1H-pyrazol-5-ol]",0.5,0.25,–
"CN1CCN(c2c([C@]34CCC(C)(C)CC3C3=CCC5[C@@]6(C)Cc7c(n[nH]c7N)C(C)(C)C6CC[C@@]5(C)[C@]3(C)CC4)n[nH]c2O)CC1 (stereo partly drawn) [Compound 89, 3-((4aS,6aS,6bR,13aR)-12-Amino-2,2,6a,6b,9,9,13a-heptamethyl-2,3,4,4a,5,6,6a,6b,7,8,8a,9,11,13,13a,13b,14,15b-octadecahydro-1H-chryseno[1,2-f]indazol-4a-yl)-4-(4-methylpiperazin-1-yl)-1H-pyrazol-5-ol]",–,–,"IC85 ([1]; read-out: E. coli (µg/ml)): 1 µg/mL; IC85 [2, 6]: 1 µg/mL"
"CC1(C)CC[C@]2(c3n[nH]c(O)c3N3CCNCC3)CC[C@]3(C)C(=CCC4[C@@]5(C)Cc6c(n[nH]c6N)C(C)(C)C5CC[C@]43C)C2C1 (stereo partly drawn) [Compound 90, 3-((4aS,6aS,6bR,13aR)-12-Amino-2,2,6a,6b,9,9,13a-heptamethyl-2,3,4,4a,5,6,6a,6b,7,8,8a,9,11,13,13a,13b,14,15b-octadecahydro-1H-chryseno[1,2-f]indazol-4a-yl)-4-(piperazin-1-yl)-1H-pyrazol-5-ol]",–,–,"IC85 ([1]; read-out: E. coli (µg/ml)): 1 µg/mL; IC85 [2, 6]: 0.5 µg/mL"
"CC1(C)CC[C@]2(C(=O)Sc3nnc(N)[nH]3)CC[C@]3(C)C(=C(c4cccnc4)CC4[C@@]5(C)Cc6c(n[nH]c6N)C(C)(C)[C@@H]5CC[C@]43C)[C@@H]2C1 (stereo partly drawn) [Compound 91, (4aS,6aS,6bR,8aR,13aR,15bS)-S-5-Amino-4H-1,2,4-triazol-3-yl 12-amino-2,2,6a,6b,9,9,13a-heptamethyl-15-(pyridin-3-yl)-2,3,4,4a,5,6,6a,6b,7,8,8a,9,11,13,13a,13b,14,15b-octadecahydro-1H-chryseno[1,2-f]indazole-4a-carbothioate]",–,–,"IC85 [1, 7]: 1 µg/mL; IC85 [2, 8]: 1 µg/mL"
"CC1(C)CC[C@]2(c3n[nH]c(O)c3CCN)CC[C@]3(C)C(=C(c4ccoc4CN4CCOCC4)CC4[C@@]5(C)Cc6c(n[nH]c6N)C(C)(C)[C@@H]5CC[C@]43C)[C@@H]2C1 (stereo partly drawn) [Compound 92, 3-((4aS,6aS,6bR,8aR,13aR,15bS)-12-Amino-2,2,6a,6b,9,9,13a-heptamethyl-15-(2-(morpholinomethyl)furan-3-yl)-2,3,4,4a,5,6,6a,6b,7,8,8a,9,11,13,13a,13b,14,15b-octadecahydro-1H-chryseno[1,2-f]indazol-4a-yl)-4-(2-aminoethyl)-1H-pyrazol-5-ol]",–,–,"IC85 [1, 7]: 2 µg/mL; IC85 [2, 8]: 0.5 µg/mL"
CC1(C)CC[C@]2(C(=O)O)CC[C@]3(C)C(=CCC4[C@@]5(C)Cc6c[nH]nc6C(C)(C)C5CC[C@]43C)C2C1 (some centres unmarked) [D],–,–,"IC85 ([1]; Table 1, concentration that reduces the area of the spreading biofilm vs negative controls by >= 85%, > means not effective at this concentration, read-out: E. coli): 4 µg/mL; IC85 ([2]; Table 1, concentration that reduces the area of the spreading biofilm vs negative controls by >= 85%, > means not effective at this concentration, read-out: P. aeruginosa): 1 µg/mL"

# Source: patent EP2712863B1, “Novel inhibitors of bacterial biofilms and related methods” (Sequoia Sciences, Inc., priority 2012, dated 2014)
